From PMC9667546, “Selective Inhibition of Bruton’s Tyrosine Kinase by a Designed Covalent Ligand Leads to Potent Therapeutic Efficacy in Blood Cancers Relative to Clinically Used Inhibitors” (ACS Pharmacology & Translational Science, 2022)

Assays:
BMX = target: T1, BMX (Homo sapiens, UniProt P51813); assay: NanoBRET in-cell target engagement, BMX; assay type: binding
T1 construct: host or cells: HEK296T (so in the source)
T1 sequence (P51813 1-675): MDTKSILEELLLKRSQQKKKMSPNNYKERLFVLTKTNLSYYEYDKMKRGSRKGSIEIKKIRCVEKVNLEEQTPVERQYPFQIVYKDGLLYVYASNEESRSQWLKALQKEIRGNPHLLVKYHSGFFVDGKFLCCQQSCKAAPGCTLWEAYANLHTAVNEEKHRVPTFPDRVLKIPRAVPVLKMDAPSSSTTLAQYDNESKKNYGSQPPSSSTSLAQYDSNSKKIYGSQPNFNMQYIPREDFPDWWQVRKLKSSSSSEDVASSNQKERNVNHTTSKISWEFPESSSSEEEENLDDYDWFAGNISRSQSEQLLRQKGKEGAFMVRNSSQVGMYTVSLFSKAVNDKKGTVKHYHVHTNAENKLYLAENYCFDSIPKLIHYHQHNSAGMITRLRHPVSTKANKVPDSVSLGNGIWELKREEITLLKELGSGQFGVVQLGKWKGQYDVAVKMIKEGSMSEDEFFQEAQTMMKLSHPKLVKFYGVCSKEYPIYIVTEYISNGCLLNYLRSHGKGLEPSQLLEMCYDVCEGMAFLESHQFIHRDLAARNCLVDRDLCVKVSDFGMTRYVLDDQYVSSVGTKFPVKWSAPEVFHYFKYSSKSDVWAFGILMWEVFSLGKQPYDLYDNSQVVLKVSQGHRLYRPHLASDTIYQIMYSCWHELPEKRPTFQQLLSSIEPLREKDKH
Experimental: (§1) In-cell target engagement was performed at Reaction Biology Corporation, using NanoBRET technology. Very briefly, HEK296T cells were transfected and treated in duplicate with JS25 for 1 h of incubation. The compound was diluted 10 times with 3-fold dilution, starting at 1 μM. Curve fits were performed only when the % NanoBret signal at the highest concentration of compounds was less than 55%. The IC50 values were determined using GraphPad Prism 8 ([…]).

TXK = target: T2, TXK (Homo sapiens, UniProt P42681); assay: NanoBRET in-cell target engagement, TXK; assay type: binding
T2 construct: host or cells: HEK296T (so in the source)
T2 sequence (P42681 1-527): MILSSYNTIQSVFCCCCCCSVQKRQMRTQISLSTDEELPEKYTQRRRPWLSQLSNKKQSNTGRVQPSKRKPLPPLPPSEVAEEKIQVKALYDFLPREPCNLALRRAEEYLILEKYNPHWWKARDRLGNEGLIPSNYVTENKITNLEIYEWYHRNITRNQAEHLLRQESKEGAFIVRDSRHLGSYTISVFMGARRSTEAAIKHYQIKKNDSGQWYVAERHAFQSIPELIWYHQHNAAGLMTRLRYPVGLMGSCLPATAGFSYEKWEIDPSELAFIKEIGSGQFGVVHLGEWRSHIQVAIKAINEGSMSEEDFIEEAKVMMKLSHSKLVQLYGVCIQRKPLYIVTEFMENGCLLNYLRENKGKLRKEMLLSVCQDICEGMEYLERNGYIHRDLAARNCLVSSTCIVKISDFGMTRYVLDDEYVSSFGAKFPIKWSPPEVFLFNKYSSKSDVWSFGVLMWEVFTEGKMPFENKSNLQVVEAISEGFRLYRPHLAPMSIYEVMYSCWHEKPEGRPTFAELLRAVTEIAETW
Experimental: as §1

MOLM-13 cells (AML) = assay: Cell viability assay (CellTiter-Glo), MOLM-13; assay type: cell-based; conditions: Homo sapiens, 72 h, n = 3
Experimental: All cell lines were purchased from ATCC, except for DoHH-2 cells that were obtained from DSMZ. Cells were cultivated in complete DMEM supplemented with 10% (vol/vol) FBS (Gibco) and 1% of penicillin/streptomycin (Gibco). The cells were grown in a humidified atmosphere of 5% CO2 at 37°C, with the medium changed every other day.
Cells were inoculated at a density of 5000 cells/well. Serially diluted compounds (starting at 50 μM) were added 24 h later. The assay was performed in triplicates. After 72 h of incubation, cellular viability was assessed by CellTiter-Glo (Promega) according to the manufacturer’s instructions. The values were normalized with the vehicle (DMSO), and the IC50 was calculated using GraphPad Prism 8.

primary DLBCL samples = assay: Ex vivo model of diffuse large B-cell lymphoma (Pharmacoscopy, drug response score); assay type: cell-based, human; conditions: 72 h, 4-point dose–response from 10 μM
BTK = BTK (Homo sapiens, UniProt Q06187); assay: BTK degradation in Raji cells (Western blot); assay type: cell-based; design: endogenous in cells; host or cells: Raji cells (Burkitt's lymphoma); conditions: 10 μM
BTK, sequence (Q06187 whole entry): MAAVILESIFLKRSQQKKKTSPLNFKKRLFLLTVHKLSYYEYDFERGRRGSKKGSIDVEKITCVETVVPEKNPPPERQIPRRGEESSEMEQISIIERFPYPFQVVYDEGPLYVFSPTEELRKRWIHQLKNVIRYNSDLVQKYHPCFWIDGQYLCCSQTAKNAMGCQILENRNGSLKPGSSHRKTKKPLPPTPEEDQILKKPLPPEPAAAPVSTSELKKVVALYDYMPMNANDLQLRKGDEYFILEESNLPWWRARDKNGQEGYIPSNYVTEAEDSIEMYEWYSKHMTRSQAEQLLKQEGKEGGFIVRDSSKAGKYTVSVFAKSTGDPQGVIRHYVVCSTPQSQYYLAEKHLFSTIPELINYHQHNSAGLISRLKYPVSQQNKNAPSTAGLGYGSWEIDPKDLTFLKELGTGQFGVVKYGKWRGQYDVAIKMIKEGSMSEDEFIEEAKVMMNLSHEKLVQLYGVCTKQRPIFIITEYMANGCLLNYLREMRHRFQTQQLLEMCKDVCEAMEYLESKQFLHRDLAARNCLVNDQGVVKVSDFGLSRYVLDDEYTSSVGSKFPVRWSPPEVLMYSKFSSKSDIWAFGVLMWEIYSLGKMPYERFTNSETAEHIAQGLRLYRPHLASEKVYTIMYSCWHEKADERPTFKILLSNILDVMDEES
Experimental: Raji cells were inoculated at 0.5 × 10^6 cells/mL, and JS25 was added at a final concentration of 10 μM. At 0, 4, and 15 h of incubation, the cells were harvested, and the pellets were resuspended in lysis buffer (20 mM Tris–HCl, 150 mM NaCl, pH 8.0, 0.1% Triton X-100), supplemented with EDTA-free Protease Inhibitor Cocktail (Merck) and DNase I (Merck). The protein concentration was determined using the Pierce BCA Protein Assay Kit (Thermo Scientific). Western blot was performed with rabbit BTK antibody (1:1000; 3533, Cell Signaling Technology), mouse α-Tubulin antibody (1:5000; 5168, Merck), goat anti-rabbit IgG (H + L) secondary antibody HRP (1:7000; 65-6120, Invitrogen), and goat anti-mouse IgG (H + L) secondary antibody HRP (1:5000; 2-6520, Invitrogen).

[1] = HEK296T cells, 1 h incubation, average of duplicates

selectivity toward BTK relative to BMX (BMX): ~2 fold
IC50 (BMX; [1]): 49 nM
selectivity (kinase/BTK), BMX (BMX; IC50 kinase/IC50 BTK): 1.7
selectivity for BTK relative to TXK (TXK): ~7 fold
IC50 (TXK; [1]): 190 nM
selectivity (kinase/BTK), TXK (TXK; IC50 kinase/IC50 BTK): 6.7
IC50 (MOLM-13 cells (AML)): ~510 nM
BTK degradation (BTK; 4 h): evident
BTK degradation (BTK; 15 h): almost completed
Structure (SMILES): C=CC(=O)Nc1cc(C)cc(-n2c(=O)ccc3cnc4ccc(-c5ccc(NS(C)(=O)=O)cc5)cc4c32)c1 [JS25]
patients with off-target or nonspecific killing (DRS < 0) (primary DLBCL samples; 11 patients): ~36%
patients with “on-target” effect (DRS > 0) (primary DLBCL samples; JS25 11 patients, ibrutinib 10 patients): 64%
